One may read the IC50 as the concentration needed to halve the response being measured. A word on the inhibition: it is the drop in the measured response relative to a control, in per cent. Usually EC50 stands for the concentration needed to bring the measured effect to its halfway point.

“And” between values parts separate entries of the source, which are not always exact repeats. Equal entries are not always repeated. Where two headings read alike, the source gives them in different places.

What all share (experiment): cell-based
One assay concerns the target T1, TraR (Agrobacterium tumefaciens, UniProt P33905).
T1 construct: These strains lack their AHL synthase (I) genes, but retain their native R genes; endogenous in cells; host or cells: A. tumefaciens WCF47 (Δ-traI) with PtraI-lacZ plasmid pCF372
Conditions: for Activation (%) / Inhibition (%): A. tumefaciens-TraR; for Activation (%): Library C primary agonism screen; for Inhibition (%): Library C primary antagonism screen; for activation at 10 µM: read-out: A. tumefaciens-TraR Activation [%]; for inhibition at 10 µM: read-out: A. tumefaciens-TraR Inhibition [%], 10 μM synthetic ligand against 100 nM OOHL; for inhibition at 10 µM / A. tumefaciens-TraR Activation [%] / A. tumefaciens-TraR Inhibition [%]: A. tumefaciens WCF47 (pCF372), normalized to OOHL; for A. tumefaciens-TraR Activation [%]: 10 μM ligand; for A. tumefaciens-TraR Inhibition [%]: 10 μM synthetic ligand against 100 nM OOHL.

Assay [1] deals with T2, LasR (Pseudomonas aeruginosa, UniProt P25084).
T2 construct: expressed in transfected cells; host or cells: E. coli DH5α (pJN105L pSC11), arabinose-induced
It is filed as cell-based. Conditions: for Inhibition (%): E. coli-LasR, Library C primary antagonism screen; for E. coli-LasR Inhibition [%]: 5 μM synthetic ligand against 7.5 nM OdDHL; for E. coli-LasR Inhibition [%] / inhibition at 5 µM: E. coli DH5α (pJN105L pSC11), normalized to OdDHL; for inhibition at 5 µM: read-out: E. coli-LasR Inhibition [%], 5 μM synthetic ligand against 7.5 nM OdDHL. In short, it runs like this:
(§1)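 E. coli DH5α carrying pJN105L/pSC11 grown to OD600 0.3, LasR expression induced with arabinose (4 mg/mL), then incubated with AHLs at 37 °C to OD600 0.45. LasR activity read by β-galactosidase reporter assay; IC50/EC50 from sigmoidal dose-response fits.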

The target in assay [2] is T2, LasR. Conditions: for Activation (%): E. coli-LasR, Library C primary agonism screen; for activation at 5 µM: read-out: E. coli-LasR Activation [%], 5 μM ligand; for activation at 5 µM / E. coli-LasR Activation [%]: E. coli DH5α (pJN105L pSC11), normalized to OdDHL; for E. coli-LasR Activation [%]: 5 μM ligand; for EC50: read-out: LasR EC50. In short, it runs like this: as §1

For assay [3], the target named is T3, LuxR (Aliivibrio fischeri, UniProt P35327).
T3 construct: a Δ-luxI derivative of V. fischeri ES114, in which the native lux operon behaves as the bioluminescent reporter; endogenous in cells; host or cells: V. fischeri ES114 (Δ-luxI)
It is filed as cell-based, Vibrio fischeri. Conditions: for Inhibition (%): V. fischeri-LuxR, Library C primary antagonism screen; for inhibition at 5 µM: read-out: V. fischeri-LuxR Inhibition [%], 5 μM synthetic ligand against 5 μM OHHL; for inhibition at 5 µM / V. fischeri-LuxR Inhibition [%]: V. fischeri ES114 (Δ-luxI), normalized to OHHL; for V. fischeri-LuxR Inhibition [%]: 5 μM synthetic ligand against 5 μM OHHL. In short, it runs like this: (§2)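 Whole-cell luminescence reporter in V. fischeri ES114 (WT, Δ-luxI or Δ-luxR) or E. coli, overnight cultures diluted 1:10 and grown with compound at RT (E. coli 30° C) to OD600 0.35-0.4 (4-6 h). Luminescence normalized to cell density, triplicates; EC50/IC50 from sigmoidal fit.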

The target in assay [4] is T3, LuxR. More on the design: species or system Vibrio fischeri. Conditions: for Activation (%): V. fischeri-LuxR, Library C primary agonism screen; for activation at 200 µM: read-out: V. fischeri-LuxR Activation [%], 200 μM ligand; for activation at 200 µM / V. fischeri-LuxR Activation [%]: V. fischeri ES114 (Δ-luxI), normalized to OHHL; for V. fischeri-LuxR Activation [%]: 200 μM ligand. In short, it runs like this:
as §2

The mark [5] stands for this setting: determined against 100 nM OOHL, read-out: TraR IC50.

T2 sequence (P25084 whole entry): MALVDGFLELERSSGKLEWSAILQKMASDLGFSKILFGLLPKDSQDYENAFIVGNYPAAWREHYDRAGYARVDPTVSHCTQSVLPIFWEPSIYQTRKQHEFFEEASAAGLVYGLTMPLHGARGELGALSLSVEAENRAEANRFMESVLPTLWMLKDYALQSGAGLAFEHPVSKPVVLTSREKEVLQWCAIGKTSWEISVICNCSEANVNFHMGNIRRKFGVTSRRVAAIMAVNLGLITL
T1 sequence (P33905 whole entry): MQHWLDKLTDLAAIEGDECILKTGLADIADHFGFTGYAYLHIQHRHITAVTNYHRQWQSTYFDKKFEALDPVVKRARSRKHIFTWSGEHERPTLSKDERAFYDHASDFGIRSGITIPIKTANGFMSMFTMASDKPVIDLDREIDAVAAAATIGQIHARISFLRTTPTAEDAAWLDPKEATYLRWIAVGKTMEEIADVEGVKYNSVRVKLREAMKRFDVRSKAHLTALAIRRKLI
T3 sequence (P35327 whole entry): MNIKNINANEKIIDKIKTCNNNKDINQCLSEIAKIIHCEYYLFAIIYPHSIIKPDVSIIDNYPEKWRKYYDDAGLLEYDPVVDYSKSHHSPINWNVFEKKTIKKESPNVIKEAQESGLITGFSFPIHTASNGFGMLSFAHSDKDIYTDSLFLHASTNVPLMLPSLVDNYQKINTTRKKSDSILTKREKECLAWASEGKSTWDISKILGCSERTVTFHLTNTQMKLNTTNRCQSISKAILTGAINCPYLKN

With `COc1ccc(CC(=O)N[C@H]2CCOC2=O)cc1` [C24], the entries for the “Activation (%)” value at TraR, on LasR [2] and at LuxR [4] were 0%, 0% and 3%, respectively. The “Inhibition (%)” value at TraR is 26%; on LasR [1] it was 16%; at LuxR [3], 57%.

`CCCCCCCC(=O)N[C@H]1CCOC1=O` [A3, C8 AHL]: the IC50 on TraR (setting [5]) was 0.77 µM; at LasR [1] (determined against 7.5 nM OdDHL, read-out: LasR IC50), 1.75 µM; at LuxR [3] (LuxR IC50, determined against 5 μM OHHL), 0.77 µM. Besides, the activation at 10 µM on TraR was found to be 7%. On TraR, the inhibition at 10 µM is 83%. Also, on LasR [1], the “E. coli-LasR Inhibition [%]” value turned out to be 43%. In addition, the results for the inhibition at 5 µM on LasR [1] and on LuxR [3] were no less than 50% and 86%, respectively. Also, the activation at 5 µM at LasR [2] was 1%. In addition, at LuxR [4], the activation at 200 µM came out at 12%.

Take `O=C(NC1CCOC1=O)c1ccc(N=Nc2ccccc2)cc1` (stereo not shown) [D20]: on TraR, the “A. tumefaciens-TraR Activation [%]” value is given as 0% and the “A. tumefaciens-TraR Inhibition [%]” value is reported as 4%. Also, the “E. coli-LasR Inhibition [%]” value at LasR [1] came out at 12%. For the same molecule, the “E. coli-LasR Activation [%]” value at LasR [2] stood at 0%. Further, at LuxR [3], the “V. fischeri-LuxR Inhibition [%]” value turned out to be 46%. For the same molecule, the “V. fischeri-LuxR Activation [%]” value at LuxR [4] amounted to 2%.

With 4-amino PHL [B26], on TraR, the “A. tumefaciens-TraR Activation [%]” value was determined as 0% and the “A. tumefaciens-TraR Inhibition [%]” value is 5%. Moreover, the “E. coli-LasR Inhibition [%]” value at LasR [1] is 8%. Also, at LasR [2], the “E. coli-LasR Activation [%]” value amounted to 0%. In addition, the “V. fischeri-LuxR Inhibition [%]” value at LuxR [3] came to 12%. Further, the “V. fischeri-LuxR Activation [%]” value at LuxR [4] turned out to be 3%.

In the case of `CCCCCCCCCCCCCCCC(=O)N[C@H]1CCOC1=O` [A6], at TraR, the “A. tumefaciens-TraR Activation [%]” value was 0% and the “A. tumefaciens-TraR Inhibition [%]” value stood at 0%. At LasR [1], the “E. coli-LasR Inhibition [%]” value is 5%. Besides, at LasR [2], the “E. coli-LasR Activation [%]” value was determined as 11%. Also, the “V. fischeri-LuxR Inhibition [%]” value on LuxR [3] was 27%. Moreover, the “V. fischeri-LuxR Activation [%]” value at LuxR [4] came out at 2%.

Turning to 4-N-tertbutoxycarbonyl-PHL [B25], at TraR, the “A. tumefaciens-TraR Activation [%]” value is given as 0% and the “A. tumefaciens-TraR Inhibition [%]” value amounted to 11%. Besides, the “E. coli-LasR Inhibition [%]” value on LasR [1] is 10%. For the same molecule, at LasR [2], the “E. coli-LasR Activation [%]” value is recorded as 27% and the concentration giving a half-maximal response (EC50) was greater than 200 µM. For the same molecule, the “V. fischeri-LuxR Inhibition [%]” value on LuxR [3] is 33%. In addition, the “V. fischeri-LuxR Activation [%]” value at LuxR [4] is on record as 2%.

For the molecule `COc1ccccc1C1CCN(c2ccc(C=CC(=O)NC3CCOC3=O)cc2[N+](=O)[O-])CC1` (stereo not shown) [D18], on TraR, the “A. tumefaciens-TraR Activation [%]” value was 0% and the “A. tumefaciens-TraR Inhibition [%]” value was 16%. Moreover, on LasR [1], the “E. coli-LasR Inhibition [%]” value was 34%. Moreover, at LasR [2], the “E. coli-LasR Activation [%]” value is 32% and the EC50 was 0.47 µM. At LasR [2] (at 200 μM ligand, relative to natural ligand), the “LasR: maximum induction value achievable (value in parentheses)” value turned out to be 32%. Moreover, the “V. fischeri-LuxR Inhibition [%]” value on LuxR [3] was found to be 19%. Also, the “V. fischeri-LuxR Activation [%]” value on LuxR [4] is on record as 2%.

Regarding 4-methyl PHL [B24], at TraR, the “A. tumefaciens-TraR Activation [%]” value is reported as 3% and the “A. tumefaciens-TraR Inhibition [%]” value was 21%. Also, the “E. coli-LasR Inhibition [%]” value on LasR [1] was found to be 11%. Besides, the “E. coli-LasR Activation [%]” value on LasR [2] is 0%. For the same molecule, at LuxR [3], the “V. fischeri-LuxR Inhibition [%]” value is on record as 58%. For the same molecule, on LuxR [4], the “V. fischeri-LuxR Activation [%]” value came out at 1%.

As for “N-(phenylbutanoyl)-L-homoserine lactone [compound 6, reference compound]”, at TraR, the “A. tumefaciens-TraR Activation [%]” value amounted to 2% and the “A. tumefaciens-TraR Inhibition [%]” value is 93%. In addition, the IC50 at TraR (setting [5]) turned out to be 1.12 µM. The “E. coli-LasR Inhibition [%]” value at LasR [1] was ~25% and ~20%. Besides, on LasR [2], the “E. coli-LasR Activation [%]” value turned out to be 3%. In addition, the “V. fischeri-LuxR Inhibition [%]” value on LuxR [3] was 70%. In addition, at LuxR [4], the “V. fischeri-LuxR Activation [%]” value worked out at 3%.

In the case of 4-amino PHL [C21], the “Activation (%)” value on TraR was 0%; on LasR [2], 0%; at LuxR [4], 3%. For the same molecule, the “Inhibition (%)” value on TraR was found to be 5%; on LasR [1], 8%; on LuxR [3], 12%.

`O=C(/C=C/c1ccccc1)N[C@H]1CCOC1=O` [A19]: at TraR, the “A. tumefaciens-TraR Activation [%]” value was found to be 3% and the “A. tumefaciens-TraR Inhibition [%]” value is recorded as 7%. For the same molecule, the “E. coli-LasR Inhibition [%]” value on LasR [1] is on record as 22%. Moreover, the “E. coli-LasR Activation [%]” value at LasR [2] worked out at 2%. Besides, at LuxR [3], the “V. fischeri-LuxR Inhibition [%]” value is listed as 48%. On LuxR [4], the “V. fischeri-LuxR Activation [%]” value is on record as 3%.

For `O=C(Cc1ccc(N=Nc2ccccc2)cc1)NC1CCOC1=O` (stereo not shown) [B22], at TraR, the “A. tumefaciens-TraR Activation [%]” value turned out to be 0% and the “A. tumefaciens-TraR Inhibition [%]” value worked out at 9%. In addition, the “E. coli-LasR Inhibition [%]” value at LasR [1] amounted to 13%. At LasR [2], the “E. coli-LasR Activation [%]” value came out at 1%. Also, the “V. fischeri-LuxR Inhibition [%]” value at LuxR [3] turned out to be 63%. The “V. fischeri-LuxR Activation [%]” value at LuxR [4] was 3%.

`O=C(Cc1ccc([N+](=O)[O-])cc1)NC1CCOC1=O` (stereo not shown) [B16, 4-nitro PHL]: on TraR, the IC50 came to 2.25 µM, the activation at 10 µM turned out to be 1% and the inhibition at 10 µM is roughly 90%. Further, at LasR [1], the inhibition at 5 µM was 27%. Further, the activation at 5 µM on LasR [2] is 0%. For the same molecule, on LuxR [3], the inhibition at 5 µM amounted to 47%. For the same molecule, the activation at 200 µM at LuxR [4] was roughly 25%.

With `O=C(Cc1ccc(C(F)(F)F)cc1)N[C@H]1CCOC1=O` [B23, 4-trifluoromethyl PHL], on TraR, the activation at 10 µM was determined as 2% and the inhibition at 10 µM is 92%. For the same molecule, at LasR [1], the inhibition at 5 µM was 26%. Further, the activation at 5 µM at LasR [2] turned out to be 0%. The “V. fischeri-LuxR Inhibition [%]” value on LuxR [3] came to 78%. Besides, at LuxR [3] (determined against 5 μM OHHL, read-out: LuxR IC50), the 50% inhibitory concentration (IC50) was found to be 0.61 µM. Further, the activation at 200 µM at LuxR [4] worked out at 3%.

As to 4-hydroxy PHL [C23], the results for the “Activation (%)” value on TraR, on LasR [2] and at LuxR [4] were 0%, 0% and 2%, respectively. Further, the “Inhibition (%)” value on TraR stood at 3%; on LasR [1] it was 7%; at LuxR [3] it was 12%.

For the origin of these results see patent US7910622B2, “Modulation of bacterial quorum sensing with synthetic ligands” (Wisconsin Alumni Research Foundation, priority 2007, dated 2011).
